Several values for one entry are separate records, joined by “and”; a condition that tells them apart may be missing. Identical values can stand only once.
Test system: Streptococcus pyogenes UMAA2166 viability, BacTiter-Glo luminescence, 6 h;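 active means compounds whose fitted viability EC50 is at most ten times the top tested dose; inconclusive means flat fit with partial activity, or a poor fit; inactive means the rest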
Test: Streptococcus pyogenes growth inhibition counter-screen, dose response, counter-screen for streptokinase expression inhibitor project, luminescence, BacTiter-Glo, strain UMAA2166 (AID 2477)

Structure (SMILES): CC(C)Oc1nc(-c2ccc(Cl)cc2)nc2ccccc12
- EC50 (measured here: retest run 2): 47 µM
- EC50 (measured here: retest run 3): > 500 µM
- EC50 (measured here: retest run 4): > 500 µM

Structure (SMILES): CCCOc1ccc(-c2nc(Oc3ccccc3)c3ccccc3n2)cc1
- EC50 (measured here: retest run 2): > 500 µM
- EC50 (measured here: retest run 3): > 500 µM
- EC50 (measured here: retest run 4): > 500 µM

Structure (SMILES): COc1ccc(Sc2ccc(NC(=O)c3ccccc3Cl)cc2C#N)cc1
- EC50: > 500 µM (inactive) and 36.7 µM
- EC50 (measured here: retest run 2): > 500 µM
- EC50 (measured here: retest run 3): 45.4 µM
- EC50 (measured here: retest run 4): > 500 µM

Structure (SMILES): CCCOc1ccc(-c2nc(OC)c3ccccc3n2)cc1
- EC50 (measured here: retest run 2): > 500 µM
- EC50 (measured here: retest run 3): > 500 µM
- EC50 (measured here: retest run 4): > 500 µM

Structure (SMILES): COc1ccc(S(=O)(=O)c2ccc(NC(=O)c3ccccc3Cl)cc2C#N)cc1
- EC50 (measured here: retest run 2): > 500 µM
- EC50 (measured here: retest run 3): > 500 µM
- EC50 (measured here: retest run 4): > 500 µM

Structure (SMILES): COc1ccc(-c2nc(OC)c3ccccc3n2)cc1
- EC50 (measured here: retest run 2): > 500 µM
- EC50 (measured here: retest run 3): > 500 µM

Structure (SMILES): Cc1ccc(Sc2ccc(NC(=O)c3ccc(F)cc3)cc2C#N)cc1
- EC50 (measured here: retest run 2): > 500 µM
- EC50 (measured here: retest run 3): > 500 µM
- EC50 (measured here: retest run 4): > 500 µM

Structure (SMILES): COc1nc(-c2ccccc2)nc2ccccc12
- EC50 (measured here: retest run 2): > 500 µM
- EC50 (measured here: retest run 3): > 500 µM
- EC50 (measured here: retest run 4): > 500 µM

Structure (SMILES): N#Cc1cc(NC(=O)c2ccc(Cl)cc2)ccc1Sc1ccccc1
- EC50 (measured here: retest run 2): 70.5 µM
- EC50 (measured here: retest run 3): 69.3 µM

Structure (SMILES): COc1ccc(Sc2ccc(NC(=O)c3cccc(Cl)c3)cc2C#N)cc1
- EC50 (measured here: retest run 2): > 500 µM

Structure (SMILES): CCCOc1ccc(-c2nc(Oc3ccc(OC)cc3)c3ccccc3n2)cc1
- EC50 (measured here: retest run 2): > 500 µM
- EC50 (measured here: retest run 3): > 500 µM
- EC50 (measured here: retest run 4): > 500 µM

Structure (SMILES): COc1cccc(-c2nc(OC(C)C)c3ccccc3n2)c1
- EC50 (measured here: retest run 2): > 500 µM
- EC50 (measured here: retest run 3): > 500 µM
- EC50 (measured here: retest run 4): > 500 µM

Source: PubChem BioAssay AID2477 (Broad Institute, 2010)
